From patent publication US6403631B1, “Method and compositions for enhancing pregnancy success in an animal” (Equitech Laboratories, Inc., priority 1995, dated 2002)

Tests used:
[1] = test system: pony mares; test: Bolus melatonin at estrus: plasma E2, P4, LH and cycle length (Example 1A); type: in vivo
Method: A. Effect of bolus administration of melatonin on estradiol, progesterone, and luteinizing hormone levels. The effect of bolus melatonin administration during estrus on plasma estradiol (E2), progesterone (P4), and luteinizing hormone (LH) was determined. The interval from treatment to ovulation (OV1) and duration of the subsequent estrous cycle, ending at OV2, were also measured. Estrous cycles of eight pony mares were synchronized. Ovarian follicular activity was monitored daily, and sexual behavior was monitored with a stallion. Blood samples were collected daily. Upon detection of behavioral estrus and a 30 mm diameter follicle, mares were assigned to either a control group or melatonin group. Blood samples were collected for 8 hours (09:00 to 17:00) at 30 minute intervals. Melatonin-group mares were given an injection of 100 μg melatonin in 1 ml of sterile saline into the jugular vein, while control-group mares received 1 ml sterile saline.

[2] = test system: cyclic pony mares; test: Melatonin at proestrus: plasma melatonin (RIA), E2, P4, LH (Example 2); conditions: 100 μg at proestrus
Method: Treatments were administered at 09:59:45 at proestrus only. Test animals were divided into two groups: control (1.0 ml 0.9% saline, n=3), and melatonin (100 μg melatonin in 1.0 ml 0.9% saline, n=3). Ovarian follicular activity was monitored daily by rectal palpation and/or ultrasonography. Blood samples were collected every 10 minutes for a period of 8 hours at proestrus, estrus, and diestrus. Plasma melatonin concentrations were measured by radioimmunoassay (RIA) to determine the effect of control and melatonin treatments administered at proestrus.

[3] = test system: ewes; conditions: orally administered to ewes; cited from earlier work
[4] = test system: corpora lutea segments from cycling mares; test: In vitro progesterone production by corpus luteum segments (Example 8); type: cell-based; conditions: 1, 10 or 100 nM melatonin; presence or absence of 100 ng hCG
Method: Corpus luteum tissue was collected surgically and was dissected into segments approximately 2×2 mm^2. Segments were incubated in the following manner: [table] At completion of culture, segments were frozen until assayed for DNA content. All media progesterone concentrations were subsequently adjusted for DNA content of the appropriate segment.

[5] = test system: conceptus membrane segments; test: In vitro estradiol production by day 16 conceptus membrane segments (Example 7); type: cell-based, mares
Method: Treatment with melatonin at estrus results in greater in vitro estradiol biosynthetic capability of day 16 conceptus membrane segments given androgen precursors. […] The extra-embryonic membranes were dissected into 4×4 mm^2 segments and cultured in the presence or absence of supplemental testosterone. Conceptus membrane fragments were cultured for 24 hours and the culture medium analyzed for estradiol.
Results and conclusions. Following completion of culture, conceptus membrane segments were frozen and assayed for DNA content. All estradiol concentrations measured in culture media were then adjusted for the DNA content of the appropriate conceptus membrane segment.

[6] = test system: human and bovine granulosa cells; conditions: in vitro; cited from earlier work
[7] = test system: sheep; conditions: subcutaneous, multiple daily administrations; cited from earlier work
[8] = test system: mares; test: Bolus melatonin at estrus: conception, plasma progesterone and conceptus diameter (Example 1B); type: in vivo; conditions: 100 μg at estrus
Method: B. Effect on conception of bolus administration of melatonin during estrus. […] Pregnancy was monitored by ultrasonography after day 10 post-ovulation. Blood samples were collected daily from the day of treatment to day 16 post-ovulation, when conceptuses were removed. Conceptus diameter was measured daily beginning day 10 post-ovulation with ultrasound.

[9] = test system: cows; test: Melatonin in cows: plasma progesterone (FIG. 5A); type: in vivo; conditions: vs saline control, initial results
Description: FIGS. 5A and 5B show the effect on plasma progesterone (P4) concentration (ng/ml), compared to a saline control, following administration of melatonin to cows and ewes in accordance with the subject invention.

[10] = test system: accessory corpora lutea; test: Multiple melatonin administrations: accessory corpora lutea progesterone (Example 6); type: in vivo, mares; conditions: treatment just prior to formation of accessory corpora lutea (day 35-45 of pregnancy)
Description: Mares are unique in that they develop and ovulate a new cohort of follicles around day 35-45 of pregnancy. […] Mares which received melatonin treatment at estrus also received daily melatonin treatment from day +35 to day +45 of pregnancy.

[11] = test system: ewes; test: Bolus melatonin at estrus in ewes: plasma progesterone (Example 12); type: in vivo; conditions: 400 μg i.v., 2 to 3 doses at estrus; Day 5 to Day 15 post-estrus; vs saline
Method: A. Effect of bolus administration of melatonin on progesterone levels. The effect of bolus melatonin administration during estrus on plasma progesterone was determined. The duration of the estrous cycle was also measured. Estrous cycles of ten ewes were monitored by daily behavioral monitoring with a vasectomized ram. […] Blood samples were collected daily for an entire estrous cycle. Melatonin-treated ewes (n=5) were administered 400 μg melatonin i.v. in the early morning (07:30 to 08:30hr) and late afternoon (16:30 to 17:30hr). Five ewes were treated similarly, but were administered saline as control at the same times. Estrus duration was approximately 24 to 36 hr, thus ewes were administered 2 to 3 doses of melatonin to assure treatment during estrus. Progesterone levels were higher from Day 5 to Day 15 post-estrus in melatonin-treated ewes compared with saline-treated ewes. The increased progesterone concentrations following administration of melatonin, as compared to a saline control, is shown in FIG. 5B.

[12] = test system: corpus luteum; test: Corpus luteum biopsy morphology after melatonin at estrus (Example 9); type: in vivo, mares; conditions: light and electron microscopy
Description: Following collection of conceptuses as described in Examples 7 and 8, mares were taken to surgery and the corpus luteum biopsied. Biopsies were taken from each mare, control and melatonin-treated, for both light and electron microscopy.

[13] = test system: cyclic pony mares; test: Melatonin at proestrus or estrus: plasma hormones in the subsequent cycle (Example 3); type: in vivo
Method: Blood samples were collected every 30 minutes and were collected daily through the next subsequent estrus and ovulation.

[14] = test system: mares; test: Melatonin at mid-diestrus: plasma progesterone (Example 4); type: in vivo; conditions: 100 μg on day 8 post-ovulation
Method: Treatments were given at 10:59:45. Daily blood sampling was performed from estrus preceding treatment to 7 days after the next subsequent ovulation. Blood samples were collected every 30 minutes for 10 hours each day of sampling.

[15] = test system: marmoset corpus luteum; conditions: in vivo perfusion, marmosets; cited from earlier work
[16] = test system: hysterectomized mares; test: Melatonin at estrus, morning v. afternoon, in hysterectomized mares: plasma progesterone (Example 5); type: in vivo
Method: Because hysterectomized mares are unable to generate a luteolytic secretion of prostaglandin F2α (PGF), luteal function and progesterone production continue longer than in uterine-intact mares.
The experiment was repeated in full using the same design with the exception that melatonin or control injections were administered in the afternoon rather than the morning. Blood samples were collected daily from day of treatment for 30 days post-ovulation.

[17] = 100 μg i.v. at estrus, vs control

## COc1ccc2[nH]cc(CCNC(C)=O)c2c1 [melatonin, N-acetyl-5-methoxytryptamine]
[1]; 100 μg i.v. at estrus, control pattern cubic, increases at OV1 and OV2
  pattern of E2 over the cycle: quadratic, with increases noted only at OV2
[1]; 100 μg i.v. at estrus, p<0.007
  plasma P4 levels vs control: higher
[1]; [17]
  duration of subsequent estrous cycle (OV1 to OV2): did not differ between groups
  interval from treatment to OV1: did not differ between groups
  plasma LH levels: not different between groups
[1]; 100 μg melatonin i.v. at estrus, 8 h sampling, p<0.001
  plasma E2 secretion following administration: declined
[2]; 8-hour proestrus sampling, vs control
  plasma LH concentrations: not different
[2]; by 3 hours post-treatment
  plasma melatonin concentrations vs control: not different
[2]; no change in controls
  plasma estradiol concentrations over 8-hour sampling at proestrus: decreased following treatment
[2]; sampled at diestrus, p=0.001 vs control
  mean plasma progesterone (P4) concentrations: significantly higher
[2]; sampled at estrus, p=0.006 vs control
  mean plasma estradiol concentrations: lower
[2]; sampled at proestrus or diestrus, vs control
  mean plasma estradiol concentrations: not different
[2]; sampled at proestrus or estrus, vs control
  mean plasma progesterone (P4) concentrations: not different
[2]; vs control, p=0.0001, RIA
  plasma melatonin concentrations after administration: higher
[3]
  plasma progesterone concentrations: increased
[4]
  media progesterone concentrations, adjusted for DNA content: no effect
[5]; conceptuses from mares treated at estrus, no supplemental testosterone, 24 hours culture
  estradiol concentrations in culture media, adjusted for DNA content: did not differ
[5]; conceptuses from mares treated at estrus, with testosterone, p=0.01 vs all other groups
  estradiol production in vitro, adjusted for DNA content: greater
[6]
  production of progesterone: enhanced
[7]
  progesterone concentrations: increased
[8]; bred mares, to day 16 post-ovulation, p=0.026 vs control
  plasma progesterone concentrations: increased
[8]; day 13 to 15 post-ovulation, vs control
  conceptus diameter: larger
[8]; days 10 to 13 post-ovulation, ultrasound
  early embryonic growth rate: did not appear to differ
[9]
  plasma progesterone (P4) concentrations: no effect
[10]
  progesterone production by accessory corpora lutea: enhanced progesterone production
[11]
  progesterone levels: higher
[12]
  corpus luteum morphology: greater percent of cells with pleomorphic nuclei
[13]; 100 μg at estrus
  plasma estradiol concentrations at time of treatment: acute decline
[13]; 100 μg at proestrus or estrus, p=0.001 vs control
  estradiol concentrations during subsequent estrous cycle: different
[13]; 100 μg at proestrus or estrus, p=0.007 vs control
  plasma progesterone response, ovulation through next ovulation: higher
[13]; 100 μg at proestrus or estrus, vs controls
  plasma LH concentrations: did not differ
[13]; 100 μg melatonin
  treatment at proestrus compared with treatment at estrus: not different
[13]; ovulation to day 7 and backwards from next ovulation, p=0.01 vs control
  plasma progesterone, standardized analysis: higher
[14]
  plasma progesterone concentrations during 10-hour sampling period: did not alter
  plasma progesterone concentrations throughout rest of luteal phase: Nor were plasma progesterone concentrations different
[14]; until day 7 post-ovulation, p=0.034
  plasma progesterone concentrations following next subsequent ovulation: higher
[15]
  progesterone production by corpus luteum: stimulated
[16]; 100 μg at estrus, morning or afternoon, p<0.03 vs control
  plasma progesterone concentrations: higher
[16]; at approximate time of luteal regression (day 14 to 16)
  plasma progesterone, melatonin-treated vs saline-treated mares: no longer detectable differences

## C[C@]12CC[C@H]3[C@@H](CCC4=CC(=O)CC[C@@]43C)[C@@H]1CC[C@@H]2O [Testosterone, testosterone]
[5]; testosterone supplied to the culture
  estradiol production by conceptuses in vitro: significantly increased
